Source: patent publication US20060241108A1, “Substituted phenoxazines and acridones as inhibitors of AKT” (St. Jude Children's Research Hospital, priority 2005, published 2006)

Assays:
AKT = assay: Inhibition of IGF-I stimulated AKT phosphorylation (Ser473) in Rh1 cells, Western blot; format: cell-based, human; conditions: for inhibition of AKT phosphorylation: 2.5 μM, Rh1 cells serum free, IGF-I; for Inhibition (phosphorylation of AKT at Ser 473): 5 μM, 1 hour, serum starved Rh1 cells, IGF-I 10 ng/ml 10 minutes, average of two experiments
Procedure: Cell lines and growth conditions. The human cell lines Rh1, Rh18, and Rh30 (ATCC Deposit # CRL 2061) have been described, e.g., by Hazelton et al. Cancer Res 1987;47:4501-4507 and Hosoi et al. Cancer Res. 1999;59:886-894. Rh1, Rh18 and Rh30 cells can each be grown in antibiotic free RPMI-1640 medium (available from BioWhittaker, Walkersville, Md.), supplemented with 10% fetal bovine serum (available from HyClone Laboratories, Logan, Utah) and 2 mM L-glutamine (available from BioWhittaker, Walkersville, Md.) at 37° C. in an atmosphere of 5% CO2. For serum free experiments, cells can be cultured in modified N2E (MN2E) medium (DMEM/F-12, 1:1 mixture) (Sigma, St. Louis, Mo.) supplemented with 1 μg/ml human holo transferrin, 30 nM sodium selenite, 20 nM progesterone, 100 μM putrescine, 30 nM vitamin E phosphate, and 50 μM ethanolamine. Cells in MN2E medium containing 5 μg/ml bovine fibronectin (available from Sigma, St. Louis, Mo.) are preferably plated, and allowed to attach overnight at 37° C. in a humidified, 5% CO2 atmosphere.
Cellular screening for inhibitors. Rh1, Rh18 and Rh30 cells can each be seeded at a density of 4×10^6/10-cm plate in serum-free medium for overnight attachment. The cells can then be exposed to 0.1% DMSO or to a test compound (for example, a phenoxazine or acridone compound) for one hour, then stimulated with Insulin-like growth factor-I (IGF-I) (10 ng/ml) for 10 minutes.
Western blot analysis. Cells are rapidly washed with ice-cold phosphate-buffered saline (PBS), placed on ice, and lysed in mammalian protein extraction reagent (M-PER; available from Pierce, Rockford, Ill.) containing one Complete™ mini protease inhibitor tablet (available from Boehringer Mannheim, Mannheim, Germany), 1 mM phenylmethylsulfonyl fluoride, 1 mM Na3VO4 and 1 mM NaF. Cellular debris is pelleted by centrifugation at 17,500×g for 10 minutes at 4° C. The protein concentration of the supernatants is measured by the bicinchoninic acid assay (e.g., using the BCA™ Protein Assay Kit, Pierce, Rockford, Ill., catalog number 23225 or 23227) using bovine serum albumin as the standard.
For the analysis of AKT, ERK-1/2, mTOR, p70S6 kinase, ribosomal protein S6 (rpS6 or S6), and glycogen synthase kinase 3 (GSK-3), equivalent amounts of protein can be separated on a 12% SDS-polyacrylamide gel (available from BioRad, Hercules, Calif.) by electrophoresis and subsequently transferred to a nitrocellulose membrane (also available from BioRad). After a 1 hour incubation in 1×TBS containing 0.05% Tween 20 and 5% blocking reagent (skim milk) (available from Upstate Biotechnology, Lake Placid, N.Y.) at room temperature, the wet nitrocellulose membranes are incubated with appropriate antibodies (available from Cell Signaling Technology, Beverly, Mass.): rabbit polyclonal antiserum specific for the phosphorylated Ser473 or Thr308 of AKT (dilution 1:1000); rabbit polyclonal antiserum specific for phosphorylated Thr202/Tyr204 of ERK-1/2 (dilution 1:1000); rabbit polyclonal antiserum specific for phosphorylated Ser2448 or Ser2481 of mTOR (dilution 1:1000); rabbit polyclonal antiserum specific for phosphorylated Thr389 of p70S6 kinase (dilution 1:4000); rabbit polyclonal antiserum specific for phosphorylated Ser235/236 of rpS6 (dilution 1:1000); or rabbit polyclonal antiserum specific for phosphorylated Ser21/9 of GSK-3α/β (dilution 1:1000). Horseradish peroxidase-conjugated goat anti-rabbit IgG antibody (dilution 1:10,000) can be used as the secondary antibody. Immunoreactive protein can be visualized using Renaissance chemiluminescence reagent (available from Life Science Products Inc., Boston, Mass.).
For these assays, Rh1 cells are seeded in serum-free medium for overnight attachment. The serum starved Rh1 cells are then exposed to 1-5 μM of a compound in Table I for 1 hour before stimulating with IGF-I (10 ng/ml) for 10 minutes. […]

AKT1ΔPH = target: T1, AKT1ΔPH (Homo sapiens, UniProt P31749); assay: In vitro kinase assay with recombinant AKT lacking the pleckstrin homology domain; format: biochemical; conditions: AKTΔPH versus full-length AKT
T1 construct: purchased Upstate Biotechnology
Procedure: In vitro inhibition of recombinant AKT. In vitro kinase assays can be performed using an active, recombinant, full length AKT1/PKBα protein (available from Upstate Biotechnology, Lake Placid, N.Y.) or with an active, recombinant AKT1/PKBα protein, referred to herein as AKT1ΔPH, that lacks the pleckstrin homology domain (also available from Upstate Biotechnology). 10 ng of the recombinant enzyme in 25 μl 1× kinase buffer (25 mM Tris, pH 7.5; 5 mM β-glycerol phosphate; 2 mM dithiothreitol; 0.1 mM Na3VO4; and 10 mM MgCl2) is mixed with 2.5 μl of DMSO and a test compound (5 μM). Samples are incubated on ice for 1 hour, at which time 1 μg of GSK-3 fusion protein (Cell Signaling Technology, Beverly, Mass., catalog #9278) is added followed by ATP (200 μM) to each reaction mixture. After incubating the suspensions at 30° C. for 30 minutes, the reaction can be terminated by the addition of 3×SDS sample buffer (187.5 mM Tris-HCl, pH 6.8; 6% SDS; 30% glycerol; 150 mM dithiothreitol; and 0.03% bromophenol blue). The samples are then boiled for five minutes. The proteins can be separated on a 12% SDS polyacrylamide gel, and subsequently transferred to a nitrocellulose membrane. The membranes are preferably incubated with rabbit polyclonal anti-phospho-GSK-3α/β (Ser21/9) antibody (available from Cell Signaling Technology, Beverly, Mass., catalog # 9331). […]

T1 sequence (P31749 118-480 limits assumed, stated change not applied): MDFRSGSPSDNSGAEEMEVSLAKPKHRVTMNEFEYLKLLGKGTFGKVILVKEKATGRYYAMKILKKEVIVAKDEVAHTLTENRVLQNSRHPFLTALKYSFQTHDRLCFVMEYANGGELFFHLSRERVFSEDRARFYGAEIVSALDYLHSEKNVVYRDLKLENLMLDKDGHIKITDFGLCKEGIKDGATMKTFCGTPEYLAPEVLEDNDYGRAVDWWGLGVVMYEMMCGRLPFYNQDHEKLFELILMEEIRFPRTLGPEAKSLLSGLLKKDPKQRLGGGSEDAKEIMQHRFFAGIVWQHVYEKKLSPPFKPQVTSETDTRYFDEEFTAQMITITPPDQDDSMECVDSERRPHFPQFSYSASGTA

Molecule	inhibition of AKT phosphorylation (AKT)	Inhibition (phosphorylation of AKT at Ser 473) (AKT)	ability to inhibit AKT kinase activity after deletion of the PH domain (AKT1ΔPH)
10-[4′-[(β-hydroxyethyl)piperazino]butyl]-2-chlorophenoxazine [Compound 15B]	complete inhibition	++++ (++++ ≈ 100% inhibition)	unaffected by deletion of the PH domain
CCN(CC)CCCCN1c2ccccc2Oc2ccc(Cl)cc21 [Compound 10B, 10-[4′-(N-diethylamino)butyl]-2-chlorophenoxazine]	complete inhibition	++++ (++++ ≈ 100% inhibition)	unaffected by deletion of the PH domain
